In the supplement of paper PMC8967900:

Columns and labels:
Experiment in all cases: selective drug sensitivity score (sDSS, relative to normal bone marrow) (sDSS (score)); higher = more potent and effective on the cell line relative to normal bone marrow cells
Details in all cases: 72 h
380 = system: 380
697 = system: 697
ALL-PO = system: ALL-PO
CCRF-HSB2 = system: CCRF-HSB2
COG-LL-394h = system: COG-LL-394h
COG-LL-402h = system: COG-LL-402h
DND-41 = system: DND-41
JURKAT = system: JURKAT
KASUMI-10 = system: KASUMI-10
KASUMI-2 = system: KASUMI-2
KASUMI-9 = system: KASUMI-9
LC4-1 = system: LC4-1
MHH-CALL-3 = system: MHH-CALL-3
NALL-1 = system: NALL-1
NALM-16 = system: NALM-16
P12-ICHIKAWA = system: P12-ICHIKAWA
PEER = system: PEER
RPMI-8402 = system: RPMI-8402
SEM cells = system: SEM cells
SUP-B15 = system: SUP-B15
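Note: ALL cell lines in 384-well plates, five doses spanning 10,000-fold, each plate scaled between vehicle and 100 µmol/L benzalkonium chloride controls, sDSS an adapted area-under-curve metric.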

SMILES	selective drug sensitivity score 380	selective drug sensitivity score 697	selective drug sensitivity score (ALL-PO)	selective drug sensitivity score (CCRF-HSB2)	selective drug sensitivity score (COG-LL-394h)	selective drug sensitivity score (COG-LL-402h)	selective drug sensitivity score (DND-41)	selective drug sensitivity score (JURKAT)	selective drug sensitivity score (KASUMI-10)	selective drug sensitivity score (KASUMI-2)	selective drug sensitivity score (KASUMI-9)	selective drug sensitivity score (LC4-1)	selective drug sensitivity score (MHH-CALL-3)	selective drug sensitivity score (NALL-1)	selective drug sensitivity score (NALM-16)	selective drug sensitivity score (P12-ICHIKAWA)	selective drug sensitivity score (PEER)	selective drug sensitivity score (RPMI-8402)	selective drug sensitivity score (SEM cells)	selective drug sensitivity score (SUP-B15)
C=CC(=O)Nc1cccc(Nc2nc(Nc3ccc(N4CCN(C(C)=O)CC4)cc3OC)ncc2C(F)(F)F)c1 [Rociletinib] (top concentration 10000 nM)	-0.16	3.54	10.3	1.24	5.24	5.24	-0.56	2.64	6.94	-2.46	5.14	3.94	-1.06	3.14	4.04	1.94	4.24	2.24	6.34	1.44
c1cn2cc(-c3ccc4cn[nH]c4c3)nc(Nc3ccc(N4CCOCC4)cc3)c2n1 [Entospletinib] (top concentration 5000 nM)	-0.64	3.16	7.26	-0.64	-0.64	0.36	-0.64	-0.64	-0.64	-0.64	2.96	-0.64	-0.64	-0.64	-0.64	-0.64	-0.64	-0.64	4.56	1.36
O=C(O)CC[C@H]1CC[C@@](c2cc(F)ccc2F)(S(=O)(=O)c2ccc(Cl)cc2)CC1 [MK-0752] (top concentration 1000 nM)	4.6	0	0	1	0	0	0.4	0	0	0	0	0	0	8.6	0	0	0	3.2	0	0
C=CC(=O)Nc1cc(Nc2nccc(-c3cn(C)c4ccccc34)n2)c(OC)cc1N(C)CCN(C)C [Osimertinib] (top concentration 2500 nM)	-3.82	-1.42	-0.72	0.08	1.68	0.78	-0.82	-4.22	2.18	-3.52	3.88	-0.42	-4.62	0.58	-4.42	-3.02	1.28	-0.42	0.58	-2.02
CNC(=O)c1ccc(N2C(=S)N(c3cnc(C#N)c(C(F)(F)F)c3)C(=O)C23CCC3)cc1F [Apalutamide] (top concentration 10000 nM)	0	0	0	0	0	0.2	0	0	0	0	0	0	0	0	0	0	0.1	0	0	0
COc1cc(C)c(/C=C/C(C)=C/C=C/C(C)=C/C(=O)O)c(C)c1C [Acitretin] (top concentration 10000 nM)	15.2	0.6	-0.3	0	-1.6	-0.1	-1.6	-1.2	-1.6	-1.6	2.9	-0.9	-0.2	-1.6	-1.6	-0.8	-0.6	-1.6	0.4	-1.6
O=C(O)c1ccc(CN2CCC(CN[C@@H]3C[C@H]3c3ccccc3)CC2)cc1 (top concentration 100000 nM)	-0.62	-0.42	2.08	-0.12	-0.62	-0.62	-0.62	-0.62	-0.62	-0.62	-0.62	-0.02	-0.62	-0.32	-0.62	-0.62	-0.22	-0.22	0.28	-0.52
Cc1nc(=O)c2cc(CN(C)c3ccc(C(=O)N[C@@H](CCC(=O)O)C(=O)O)s3)ccc2[nH]1 [Raltitrexed] (top concentration 1000 nM)	20.7	25.8	23	21.9	2.12	8.22	16.5	14.6	18.1	15.8	15.2	19.3	9.92	12.8	9.12	20.4	13	23.4	23.9	28
CNC(=O)c1ccc(C)c(-n2c(C)cc(OCc3ccc(F)cc3F)c(Br)c2=O)c1 (top concentration 1000 nM)	0	2	0	0	0	0	0	0.9	0	0	2.3	0	0	0.3	0	0	0	0	1.9	0
CCN1CCN(c2ccc(Nc3cc(N(C)C(=O)Nc4c(Cl)c(OC)cc(OC)c4Cl)ncn3)cc2)CC1 [Infigratinib] (top concentration 1000 nM)	0	0	0	0	0	0	0	0	0	0	0	0	0	0	0	0	0	0	0	0
C[C@]1(O)C[C@@H](c2nc(-c3ccc4ccc(-c5ccccc5)nc4c3)c3c(N)nccn32)C1 [Linsitinib] (top concentration 10000 nM)	1.72	-2.68	3.92	-2.28	-0.68	-3.18	4.82	-3.18	-2.28	-0.28	-2.98	0.92	-3.18	-0.08	-3.18	-3.18	-0.98	-2.08	0.62	-3.18
C=CC(=O)Nc1cccc(Oc2nc(Nc3ccc(N4CCN(C)CC4)cc3)nc3ccsc23)c1 [Olmutinib] (top concentration 1000 nM)	-0.02	-0.02	-0.02	-0.02	-0.02	1.28	-0.02	-0.02	-0.02	-0.02	1.68	-0.02	-0.02	5.88	-0.02	-0.02	-0.02	-0.02	-0.02	-0.02
Cc1ccc(-n2nc(C(C)(C)C)cc2NC(=O)Nc2ccc(OCCN3CCOCC3)c3ccccc23)cc1 [Doramapimod] (top concentration 10000 nM)	-0.24	4.96	4.16	2.76	2.16	2.66	-0.24	1.16	1.16	-0.24	4.56	1.76	-0.24	-0.24	7.06	0.26	1.86	1.96	1.06	5.16
CC[C@@H]1[C@H](F)C(=O)N[C@@H]1COc1nccc2cc(C(N)=O)c(OC)cc12 (top concentration 10000 nM)	-1.32	1.88	2.08	1.88	0.38	3.08	-1.32	0.48	3.68	-1.32	0.08	0.08	1.58	-1.32	-1.32	0.18	1.08	1.38	1.48	0.98
CC(O)(CS(=O)(=O)c1ccc(F)cc1)C(=O)Nc1ccc(C#N)c(C(F)(F)F)c1 (stereo not given) [Bicalutamide] (top concentration 10000 nM)	1.72	-0.68	3.92	-1.28	-0.18	-1.68	-1.68	0.42	-1.68	-1.68	0.52	-1.68	-1.68	-1.68	0.62	-0.88	-0.18	1.02	-1.68	4.62
CC1(C)C(C(=O)Nc2ccc(S(=O)(=O)c3ccc(NC(=O)C4C(C)(C)C4(C)C)cc3)cc2)C1(C)C [BRD7116] (top concentration 10000 nM)	-0.24	0.56	-0.24	0.16	3.16	-0.24	-0.24	1.76	0.86	-0.24	4.46	1.76	-0.24	-0.24	1.06	0.66	-0.14	0.96	-0.24	-0.14
Cc1nc2cccc(N)c2c(=O)n1C1CCC(=O)NC1=O (stereo not given) [Avadomide (CC122)] (top concentration 10000 nM)	0	2.7	0	0	0	0.2	0	0	2.3	0	10.7	3.5	0	0	0	0	0	0	0.9	0
Nc1cccc2c1C(=O)N(C1CCC(=O)NC1=O)C2=O (stereo not given) [Pomalidomide] (top concentration 10000 nM)	-0.26	1.74	8.14	-0.26	0.04	0.64	4.24	-0.26	0.24	-0.26	6.84	4.54	-0.26	-0.06	-0.26	-0.26	-0.26	-0.26	3.64	-0.26
